{"source": "patent US9913478B2", "about": "“Organic and environmentally “green” biocide compositions and applications” (Arrowhead Center, Inc., priority 2013, dated 2018)", "test_system": "X. campestris Provencia strain", "experiment": "growth (CFU) after 18 hours of incubation, oil compared to carvacrol (FIG. 2)", "type": "cell-based, Xanthomonas campestris", "details": "0.01 mg/ml, oil vs carvacrol p-value=0.009", "experimental": "The bars in the graph indicate the bacterial number (CFU) that was reached after 18 hours of incubation. […] Thus, a composition of biocide comprising oregano oil exerts synergistic effects, due, in part, to the multiple antimicrobial biochemicals that make up the oil (see FIG. 1).", "data": [{"smiles": "Cc1ccc(C(C)C)cc1O", "note": "[Carvacrol, carvacrol]", "values": [{"measurement": "inhibition of growth, bacterial number (CFU)", "result": "not as effective as the essential oil"}]}]}
